Experimental data taken from ChEMBL document CHEMBL5038621, “Development of anti-inflammatory peptidomimetics based on the structure of human alpha1-antitrypsin” (2022).
The source made the active and inactive calls. The calls are words filed in the database; no cut-off is given here. Peptide text beside a SMILES is read from it.

Experiments:
[1] = biological target: T1, Neutrophil elastase (Homo sapiens) (UniProt P08246); test: Inhibition of neutrophil elastase (unknown origin) at 0.96 to 96.15 uM; conditions: dose 0.96-96.15 µM
T1 sequence (whole entry): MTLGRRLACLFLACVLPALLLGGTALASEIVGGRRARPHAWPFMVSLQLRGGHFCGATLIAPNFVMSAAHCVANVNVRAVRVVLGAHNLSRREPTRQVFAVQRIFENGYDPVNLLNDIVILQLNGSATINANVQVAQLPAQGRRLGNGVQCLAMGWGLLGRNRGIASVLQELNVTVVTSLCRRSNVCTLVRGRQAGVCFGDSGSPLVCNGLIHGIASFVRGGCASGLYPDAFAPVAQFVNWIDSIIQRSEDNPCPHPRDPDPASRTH

[2] = Antiinflammatory activity against LPS-stimulated ThG elicited C57BL/6 mouse peritoneal macrophages assessed as inhibition of LPS-induced IL6 production measured after 24 hrs by Griess assay; format: functional, Peritoneal macrophage; set-up: concentration or dose not given beside the values
[3] = Antiinflammatory activity against LPS-stimulated ThG elicited C57BL/6 mouse peritoneal macrophages assessed as inhibition of LPS-induced NO production measured after 24 hrs by Griess assay; format: functional, Peritoneal macrophage; set-up: concentration or dose not given beside the values
Mus musculus [4] = test: Antiinflammatory activity in LPS-induced C57BL/6 mouse peritonitis model assessed as increase in F4/80 peritoneal cell population at 50 ug, ip treated for 3 hrs followed by LPS stimulation and measured after 24 hrs post stimulation by flow cytometry; format: functional; conditions: dose 50 µg
[5] = Antiinflammatory activity against LPS-stimulated ThG elicited C57BL/6 mouse peritoneal macrophages assessed as reduction in cell surface CD40 expression measured after 24 hrs by Flow cytometry analysis; format: functional, Peritoneal macrophage; set-up: concentration or dose not given beside the values
Mus musculus [6] = test: Antiinflammatory activity in LPS-induced C57BL/6 mouse peritonitis model assessed as increase in Gr1 cell population at 50 ug, ip treated for 3 hrs followed by LPS stimulation and measured after 24 hrs post stimulation by flow cytometry; format: functional; conditions: dose 50 µg
[7] = Antiinflammatory activity against LPS-stimulated ThG elicited C57BL/6 mouse peritoneal macrophages assessed as inhibition of LPS-induced TNFalpha production measured after 24 hrs by ELISA; format: functional, Peritoneal macrophage; set-up: scale not given: the % may be the effect or the level left
Mus musculus [8] = test: Antiinflammatory activity in LPS-induced C57BL/6 mouse peritonitis model assessed as reduction in CD86 protein expression at 50 ug, ip treated for 3 hrs followed by LPS stimulation and measured after 24 hrs post stimulation by flow cytometry; format: functional; set-up: scale not given: the % may be the effect or the level left; conditions: dose 50 µg
Mus musculus [9] = test: Antiinflammatory activity in LPS-induced C57BL/6 mouse peritonitis model assessed as reduction in CD40 protein expression at 50 ug, ip treated for 3 hrs followed by LPS stimulation and measured after 24 hrs post stimulation by flow cytometry; format: functional; set-up: scale not given: the % may be the effect or the level left; conditions: dose 50 µg
Mus musculus [10] = test: Antiinflammatory activity in LPS-induced C57BL/6 mouse peritonitis model assessed as reduction in LPS-induced serum TNF alpha levels at 50 ug, ip treated for 3 hrs followed by LPS stimulation and measured after 24 hrs post stimulation by ELISA; format: functional; set-up: scale not given: the % may be the effect or the level left; conditions: dose 50 µg
Mus musculus [11] = test: Antiinflammatory activity in LPS-induced C57BL/6 mouse peritonitis model assessed as reduction in LPS-induced serum IL-6 levels at 50 ug, ip treated for 3 hrs followed by LPS stimulation and measured after 24 hrs post stimulation by ELISA; format: functional; set-up: scale not given: the % may be the effect or the level left; conditions: dose 50 µg
[12] = Antiinflammatory activity against LPS-stimulated ThG elicited C57BL/6 mouse peritoneal macrophages assessed as reduction in cell surface CD86 expression measured after 24 hrs by Flow cytometry analysis; format: functional, Peritoneal macrophage; set-up: concentration or dose not given beside the values

Row | SMILES | inhibition [1] | Activity [2] [%] | Activity [3] [%] | Activity [5] [%] | Activity [12] [%] | also measured
1 | CC[C@H](C)[C@H](NC(=O)[C@H](CO)NC(=O)[C@H](CC(C)C)NC(=O)[C@H](CC(C)C)NC(=O)[C@@H](NC(=O)CNC(=O)[C@@H](NC(=O)[C@H](C)NC(C)=O)[C@@H](C)O)[C@@H](C)O)C(=O)N[C@@H](CC(N)=O)C(N)=O (Ac-ATGTLLSIN-NH2) | inactive |  |  |  |  | 
2 | NC(=O)c1ccc(CNC(=O)C(Cc2c[nH]cn2)NCc2cccc(O)c2)cc1 (configuration not stated) |  | 46.3 |  |  |  | 
3 | COc1cccc(C(=O)NC(Cc2c[nH]cn2)C(=O)NCc2ccc(C(N)=O)cc2)c1OC (configuration not stated) |  | 46.3 | 29.5 |  |  | 
4 | NC(=O)C(NC(=O)C(Cc1c[nH]cn1)NCc1ccc(O)cc1)c1ccccc1 (configuration not stated) |  | 33.5 | 38.7 | 27.4 | 16.4 | Activity (Mus musculus [4]): 130.4%; Activity (Mus musculus [6]): 48.4%; Activity [7]: 19.9%; Activity (Mus musculus [8]): 45.6%; Activity (Mus musculus [9]): 47.3%; Activity (Mus musculus [10]): 73.4%; Activity (Mus musculus [11]): 80.6%
5 | CC(=O)N[C@@H](Cc1ccc(O)cc1)C(=O)N[C@@H](CCCNC(=N)N)C(=O)N[C@@H](C)C(=O)N[C@@H](Cc1c[nH]cn1)C(=O)N[C@@H](CCC(N)=O)C(=O)NCC(=O)N[C@@H](CCC(=O)O)C(N)=O (Ac-YRAHQGE-NH2) | inactive | 52.2 | 66.9 | 55.3 | 52.4 | 
6 | CC(=O)N[C@@H](CCC(N)=O)C(=O)N[C@@H](Cc1ccccc1)C(=O)N[C@@H](Cc1ccccc1)C(=O)N[C@@H](CCCCN)C(=O)NCC(=O)N[C@@H](CCCCN)C(N)=O (Ac-QFFKGK-NH2) | inactive |  | 51.8 | 41.6 | 35.2 | 
7 | CC(=O)N[C@@H](Cc1ccccc1)C(=O)N[C@@H](CCCNC(=N)N)C(=O)N[C@@H](Cc1ccc(O)cc1)C(=O)N[C@@H](CC(C)C)C(=O)N[C@H](C(=O)N[C@@H](CC(C)C)C(=O)N[C@@H](Cc1ccccc1)C(N)=O)C(C)C (Ac-FRYLVLF-NH2) | inactive |  |  |  |  | 
8 | CC[C@H](C)[C@H](NC(=O)[C@H](CCC(=O)O)NC(=O)[C@H](CC(C)C)NC(=O)[C@H](CCCCN)NC(=O)[C@H](CCCCN)NC(=O)[C@H](CS)NC(=O)[C@H](Cc1c[nH]cn1)NC(=O)[C@H](CCC(N)=O)NC(C)=O)C(=O)N[C@@H](CCCCN)C(N)=O (Ac-QHCKKLEIK-NH2) | inactive |  |  |  |  | 
9 | NC(=O)c1ccc(CNC(=O)C(Cc2c[nH]cn2)NCc2ccc(O)cc2)cc1 (configuration not stated) |  | 46.3 |  | 49.3 | 20.4 | 
10 | CC(=O)N[C@@H](CC(C)C)C(=O)N1CCC[C@H]1C(=O)N[C@@H](CC(N)=O)C(=O)N[C@@H](CO)C(=O)N[C@@H](CC(C)C)C(=O)NCC(=O)N[C@@H](CC(N)=O)C(N)=O (Ac-LPNSLGN-NH2) | inactive |  | 70.3 |  | 24.7 | 
11 | COc1cccc(C(=O)NC(Cc2c[nH]cn2)C(=O)NC(C(N)=O)c2ccccc2)c1OC (configuration not stated) |  | 46.3 |  |  |  | 
12 | NC(=O)CCC(NC(=O)C1Cc2nc[nH]c2CN1)C(N)=O (configuration not stated) |  | 46.3 |  |  |  | Activity [7]: 24.4%
13 | CC[C@H](C)[C@H](NC(=O)[C@@H](NC(=O)[C@H](Cc1ccc(O)cc1)NC(=O)[C@H](CC(C)C)NC(=O)[C@H](Cc1ccccc1)NC(=O)[C@H](CC(C)C)NC(C)=O)C(C)C)C(=O)N[C@@H](Cc1c[nH]cn1)C(N)=O (Ac-LFLYVIH-NH2) | inactive | 38.4 | 57.6 | 45.7 |  | 
14 | CC(=O)N[C@@H](Cc1c[nH]cn1)C(=O)N[C@@H](CS)C(=O)N[C@@H](CCCCN)C(=O)N[C@@H](CCCCN)C(=O)N[C@@H](CC(C)C)C(=O)NCC(=O)N[C@@H](CCCCN)C(=O)N[C@@H](Cc1ccccc1)C(N)=O (Ac-HCKKLGKF-NH2) | inactive |  |  |  |  | 
15 | CC(=O)N[C@@H](CC(=O)O)C(=O)N[C@@H](CC(C)C)C(=O)N[C@@H](CCCCN)C(=O)N[C@@H](CCCCN)C(=O)N[C@@H](CC(=O)O)C(=O)N[C@@H](CCCCN)C(=O)N[C@@H](C)C(N)=O (Ac-DLKKDKA-NH2) | inactive |  |  |  |  | 
16 | CC(=O)N[C@@H](CC(C)C)C(=O)N[C@@H](CCC(=O)O)C(=O)NCC(=O)N1CCC[C@H]1C(=O)N[C@@H](CCCCN)C(=O)N[C@@H](C)C(N)=O (Ac-LEGPKA-NH2) | inactive |  |  |  |  | 
